Data taken from patent US6737383B1, “Herbicidal oxadiazolidines” (priority 1999, dated 2004).

What was measured:
[1] = test system: surinam grass; test: Test B pre/postemergence surinam grass; type: in vivo, Brachiaria decumbens
Procedure, shortened: (§1)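 Test chemicals in a non-phytotoxic solvent mixture with surfactant were sprayed preemergence onto planted seeds and postemergence onto plants 2 to 18 cm tall (1- to 4-leaf stage). After twelve to sixteen days in a greenhouse, injury was visually rated against untreated controls from 0 (no effect) to 10 (complete control).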

[2] = test system: pigweed; test: Test B pre/postemergence pigweed; type: in vivo, Amaranthus retroflexus
Procedure, shortened: as §1

[3] = test system: wheat; test: Test B pre/postemergence wheat; type: in vivo, Triticum aestivum; settings: for Plant response rating, Wheat: Rate 250 g/ha
Procedure, shortened: as §1

[4] = test system: purple nutsedge; test: Test B pre/postemergence purple nutsedge; type: in vivo, Cyperus rotundus
Procedure, shortened: as §1

[5] = test system: duck salad; test: Test B flood test duck salad; type: in vivo, Heteranthera limosa
Procedure, shortened: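 Read-out is a visual response score from 0 (no effect) to 10 (complete control), assigned by comparison with untreated controls. Treatment was applied at the 2-leaf stage, and plants stayed in the greenhouse for twelve to sixteen days before scoring.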

[6] = test system: crabgrass; test: Test B pre/postemergence crabgrass; type: in vivo, Digitaria sanguinalis
Procedure, shortened: as §1

[7] = test system: soybean; test: Test B pre/postemergence soybean; type: in vivo, Glycine max
Procedure, shortened: as §1

[8] = test system: sugar beet; test: Test B pre/postemergence sugar beet; type: in vivo, Beta vulgaris; settings: for Plant response rating, Sugarbeets: Rate 250 g/ha
Procedure, shortened: as §1

[9] = test system: giant foxtail; test: Test B pre/postemergence giant foxtail; type: in vivo, Setaria faberii
Procedure, shortened: as §1

[10] = test system: cocklebur; test: Test B pre/postemergence cocklebur; type: in vivo, Xanthium strumarium
Procedure, shortened: as §1

[11] = test system: velvetleaf; test: Test B pre/postemergence velvetleaf; type: in vivo, Abutilon theophrasti; settings: for Plant response rating, Velvetleaf: Rate 250 g/ha
Procedure, shortened: as §1

[12] = test system: rape; test: Test B pre/postemergence rape; type: in vivo, Brassica napus
Procedure, shortened: as §1

[13] = test system: bedstraw; test: Test B pre/postemergence bedstraw; type: in vivo, Galium aparine
Procedure, shortened: as §1

[14] = test system: morningglory; test: Test B pre/postemergence morningglory; type: in vivo, Ipomoea hederacea
Procedure, shortened: as §1

[15] = test system: corn; test: Test B pre/postemergence corn; type: in vivo, Zea mays
Procedure, shortened: as §1

[16] = Postemergence, Rate 62 g/ha, scale 0 to 10, 0 is no effect, 10 is complete control
[17] = Postemergence, Rate 250 g/ha, scale 0 to 10, 0 no effect, 10 complete control
[18] = Preemergence, Rate 62 g/ha, scale 0 to 10 (0 no effect, 10 complete control)
[19] = Preemergence, Rate 125 g/ha, scale 0 to 10 (0 no effect, 10 complete control)
[20] = Preemergence, Rate 250 g/ha, scale of 0 to 10 where 0 is no effect and 10 is complete control
[21] = Preemergence, Rate 500 g/ha, scale 0 to 10 (0 no effect, 10 complete control)
[22] = Rate 125 g/ha, Postemergence, scale 0 to 10, 0 no effect, 10 complete control
[23] = Postemergence, Rate 125 g/ha, scale of 0 to 10 where 0 is no effect and 10 is complete control
[24] = Rate 62 g/ha, Postemergence, scale of 0 to 10 where 0 is no effect and 10 is complete control
[25] = Rate 250 g/ha, Postemergence, scale 0 to 10, 0 is no effect, 10 is complete control
[26] = Rate 500 g/ha, Postemergence, scale 0 to 10, 0 no effect, 10 complete control
[27] = Preemergence, Rate 125 g/ha, 0 is no effect, 10 is complete control
[28] = Preemergence, scale of 0 to 10 where 0 is no effect and 10 is complete control
[29] = Postemergence, scale 0 to 10, 0 is no effect, 10 is complete control

CCn1c(=O)on(C(=O)N(c2ccccc2)C(C)C)c1=O [Compound 117]
B. signalgrass plant response rating [1, 16]: 6
B. signalgrass plant response rating [1, 17]: 9
B. signalgrass plant response rating [1, 18]: 6
Plant response rating, B. signalgrass [1, 19]: 9
Plant response rating, B. signalgrass [1, 20]: 9
B. signalgrass plant response rating [1, 21]: 10
B. signalgrass plant response rating [1, 22]: 8
B. signalgrass plant response rating ([1]; Rate 500 g/ha, Postemergence, scale of 0 to 10 where 0 is no effect and 10 is complete control): 9
Redroot pigweed plant response rating [2, 23]: 0
Redroot pigweed plant response rating [2, 18]: 9
Plant response rating, Redroot pigweed [2, 19]: 10
Plant response rating, Redroot pigweed [2, 20]: 10
Redroot pigweed plant response rating [2, 21]: 10
Redroot pigweed plant response rating [2, 24]: 0
Plant response rating, Redroot pigweed [2, 25]: 0
Redroot pigweed plant response rating [2, 26]: 6
Wheat plant response rating [3, 23]: 6
Wheat plant response rating [3, 18]: 2
Wheat plant response rating (0 to 10 scale) [3, 27]: 4
Plant response rating, Wheat [3, 28]: 7
Wheat plant response rating [3, 21]: 8
Wheat plant response rating [3, 24]: 2
Plant response rating, Wheat [3, 29]: 6
Wheat plant response rating [3, 26]: 8
Nutsedge plant response rating [4, 23]: 7
Nutsedge plant response rating [4, 17]: 7
Nutsedge plant response rating [4, 18]: 0
Plant response rating, Nutsedge [4, 19]: 0
Plant response rating, Nutsedge [4, 20]: 3
Nutsedge plant response rating [4, 21]: 7
Nutsedge plant response rating [4, 24]: 2
Nutsedge plant response rating [4, 26]: 7
Ducksalad plant response rating ([5]; Postemergence (flood test species), Rate 125 g/ha, scale of 0 to 10 where 0 is no effect and 10 is complete control): 0
Ducksalad plant response rating ([5]; Rate 62 g/ha, Postemergence section, flood test species, scale of 0 to 10 where 0 is no effect and 10 is complete control): 0
Ducksalad plant response rating ([5]; Rate 250 g/ha, headed Pre-emergence (flood test species), scale 0 to 10 (0 no effect, 10 complete control)): 0
Plant response rating, Ducksalad ([5]; Rate 500 g/ha, headed Pre-emergence (flood test species), scale 0 to 10 (0 no effect, 10 complete control)): 0
Ducksalad plant response rating ([5]; Rate 500 g/ha, listed under Postemergence (flood test species), scale 0 to 10, 0 no effect, 10 complete control): 0
Ducksalad plant response rating ([5]; Rate 1000 g/ha, Pre-emergence (as headed), scale 0 to 10): 0
Ducksalad plant response rating ([5]; Rate 2000 g/ha, Pre-emergence (as headed), scale 0 to 10): 1
Ducksalad plant response rating ([5]; flood test, listed under Postemergence, Rate 250 g/ha, scale 0 to 10, 0 no effect, 10 complete control): 0
Crabgrass plant response rating [6, 23]: 9
Crabgrass plant response rating [6, 17]: 9
Crabgrass plant response rating [6, 18]: 9
Plant response rating, Crabgrass [6, 19]: 10
Plant response rating, Crabgrass [6, 20]: 10
Crabgrass plant response rating [6, 21]: 10
Crabgrass plant response rating [6, 24]: 9
Crabgrass plant response rating [6, 26]: 9
Soybean plant response rating [7, 23]: 5
Soybean plant response rating [7, 18]: 0
Plant response rating, Soybean [7, 19]: 8
Plant response rating, Soybean [7, 20]: 8
Soybean plant response rating [7, 21]: 9
Soybean plant response rating [7, 24]: 2
Plant response rating, Soybean [7, 25]: 5
Soybean plant response rating [7, 26]: 7
Sugarbeets plant response rating [8, 23]: 0
Sugarbeets plant response rating [8, 18]: 0
Sugarbeets plant response rating (0 to 10 scale) [8, 27]: 8
Plant response rating, Sugarbeets [8, 28]: 9
Sugarbeets plant response rating [8, 21]: 10
Sugarbeets plant response rating [8, 24]: 0
Plant response rating, Sugarbeets [8, 29]: 3
Sugarbeets plant response rating [8, 26]: 7
Giant foxtail plant response rating [9, 23]: 9
Giant foxtail plant response rating [9, 17]: 9
Giant foxtail plant response rating [9, 18]: 10
Plant response rating, Giant foxtail [9, 19]: 10
Plant response rating, Giant foxtail [9, 20]: 10
Giant foxtail plant response rating [9, 21]: 10
Giant foxtail plant response rating [9, 24]: 9
Giant foxtail plant response rating [9, 26]: 9
Cocklebur plant response rating [10, 23]: 0
Cocklebur plant response rating [10, 17]: 0
Cocklebur plant response rating [10, 18]: 0
Plant response rating, Cocklebur [10, 19]: 0
Plant response rating, Cocklebur [10, 20]: 0
Cocklebur plant response rating [10, 21]: 0
Cocklebur plant response rating [10, 24]: 0
Cocklebur plant response rating [10, 26]: 1
Velvetleaf plant response rating [11, 23]: 3
Velvetleaf plant response rating [11, 18]: 6
Velvetleaf plant response rating (0 to 10 scale) [11, 27]: 8
Plant response rating, Velvetleaf [11, 28]: 10
Velvetleaf plant response rating [11, 21]: 10
Velvetleaf plant response rating [11, 24]: 0
Plant response rating, Velvetleaf [11, 29]: 6
Velvetleaf plant response rating [11, 26]: 8
Rape plant response rating [12, 23]: 0
Rape plant response rating [12, 17]: 2
Rape plant response rating [12, 18]: 6
Plant response rating, Rape [12, 19]: 10
Plant response rating, Rape [12, 20]: 10
Rape plant response rating [12, 21]: 10
Rape plant response rating [12, 24]: 0
Rape plant response rating [12, 26]: 6
Bedstraw plant response rating [13, 16]: 0
Bedstraw plant response rating [13, 17]: 2
Bedstraw plant response rating [13, 18]: 0
Plant response rating, Bedstraw [13, 19]: 0
Plant response rating, Bedstraw [13, 20]: 0
Bedstraw plant response rating [13, 21]: 0
Bedstraw plant response rating [13, 22]: 0
Morningglory plant response rating [14, 23]: 7
Morningglory plant response rating [14, 17]: 7
Morningglory plant response rating [14, 18]: 0
Plant response rating, Morningglory [14, 19]: 0
Plant response rating, Morningglory [14, 20]: 2
Morningglory plant response rating [14, 21]: 6
Morningglory plant response rating [14, 24]: 2
Morningglory plant response rating [14, 26]: 10
Corn plant response rating [15, 23]: 5
Corn plant response rating [15, 17]: 6
Corn plant response rating [15, 18]: 0
Plant response rating, Corn [15, 19]: 2
Plant response rating, Corn [15, 20]: 7
Corn plant response rating [15, 21]: 9
Corn plant response rating [15, 24]: 0
Corn plant response rating [15, 26]: 7
